Assays:
Assay type in all cases: in vivo
[1] = tested on: barnyardgrass (Echinochloa crus-galli); experiment: Test A pre-/postemergence: barnyardgrass; details: for Barnyardgrass plant response rating: Postemergence; for Plant response rating, Barnyardgrass: Preemergence
Outline: (§1)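 Seeds were sown in loam/sand blend and sprayed preemergence (directed soil spray) and, simultaneously, postemergence at 2–10 cm, one- to two-leaf stage, using compounds in non-phytotoxic solvent with surfactant. After ~10 days in greenhouse, injury was rated visually versus untreated controls, 0 (no effect) to 100 (complete control).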

[2] = tested on: crabgrass, large (large crabgrass, Digitaria sanguinalis); experiment: Test A pre-/postemergence: crabgrass, large; details: for Crabgrass, Large plant response rating: Postemergence; for Plant response rating, Crabgrass, Large: Preemergence
Outline: as §1

[3] = tested on: foxtail, giant (giant foxtail, Setaria faberii); experiment: Test A pre-/postemergence: foxtail, giant; details: for Foxtail, Giant plant response rating: Postemergence; for Plant response rating, Foxtail, Giant: Preemergence
Outline: as §1

[4] = tested on: morningglory (Ipomoea spp.); experiment: Test A pre-/postemergence: morningglory; details: for Morningglory plant response rating: Postemergence; for Plant response rating, Morningglory: Preemergence
Outline: as §1

[5] = tested on: pigweed (Amaranthus retroflexus); experiment: Test A pre-/postemergence: pigweed; details: for Pigweed plant response rating: Postemergence; for Plant response rating, Pigweed: Preemergence
Outline: as §1

[6] = tested on: velvetleaf (Abutilon theophrasti); experiment: Test A pre-/postemergence: velvetleaf; details: for Velvetleaf plant response rating: Postemergence; for Plant response rating, Velvetleaf: Preemergence
Outline: as §1

[7] = tested on: wheat (Triticum aestivum); experiment: Test A pre-/postemergence: wheat; details: for Wheat plant response rating: Postemergence; for Plant response rating, Wheat: Preemergence
Outline: as §1

corn (Zea mays) = experiment: Test A pre-/postemergence: corn; details: for Corn plant response rating: Postemergence; for Plant response rating, Corn: Preemergence
Outline: as §1

rice (Oryza sativa) = experiment: Test C flooded paddy test: rice; details: scale 0 to 100 (0 no effect, 100 complete control)
Description: (§2) Plant species in the flooded paddy test consisted of rice (Oryza sativa), sedge, umbrella (small-flower umbrella sedge, Cyperus difformis), ducksalad (Heteranthera limosa) and barnyardgrass (Echinochloa crus-galli) grown to the 2-leaf stage for testing. At time of treatment, test pots were flooded to 3 cm above the soil surface, treated by application of test compounds directly to the paddy water, and then maintained at that water depth for the duration of the test.
(§3) Treated plants and controls were maintained in a greenhouse for 13 to 15 days, after which time all species were compared to controls and visually evaluated. Plant response ratings, summarized in Table C, are based on a scale of 0 to 100 where 0 is no effect and 100 is complete control. A dash (-) response means no test result.

[8] = tested on: sedge, umbrella (small-flower umbrella sedge, Cyperus difformis); experiment: Test C flooded paddy test: sedge, umbrella; details: scale 0 to 100 (0 no effect, 100 complete control)
Description: as §2, §3

[9] = tested on: ducksalad (Heteranthera limosa); experiment: Test C flooded paddy test: ducksalad; details: scale 0 to 100 (0 no effect, 100 complete control)
Description: as §2, §3

[10] = tested on: barnyardgrass (Echinochloa crus-galli); experiment: Test C flooded paddy test: barnyardgrass; details: scale 0 to 100 (0 no effect, 100 complete control)
Description: as §2, §3

[11] = 125 g ai/ha, 0 to 100 scale, 0 is no effect, 100 is complete control
[12] = 500 g ai/ha, visual rating on 0 to 100 scale (0 no effect, 100 complete control), approximately ten days
[13] = 125 g ai/ha, 0 to 100 scale where 0 is no effect and 100 is complete control
[14] = 500 g ai/ha, 0 to 100 scale (0 no effect, 100 complete control)
[15] = Flood (flooded paddy test), 125 g ai/ha, visual rating after 13 to 15 days
[16] = Flood (flooded paddy test), 250 g ai/ha, visual rating after 13 to 15 days
[17] = 125 g ai/ha, 0 to 100 scale (0 no effect, 100 complete control)
[18] = 500 g ai/ha, 0 to 100 scale, 0 is no effect, 100 is complete control
[19] = Flood (flooded paddy test), 62 g ai/ha, visual rating after 13 to 15 days

CCc1nn(-c2ccc(C(F)(F)F)cc2)nc1Cn1cc(C(F)(F)F)nc1Cl [Compound 122]
Barnyardgrass plant response rating [1, 11]: 40 | Barnyardgrass plant response rating [1, 12]: 70 | Plant response rating, Barnyardgrass [1, 13]: 20 | Plant response rating, Barnyardgrass [1, 14]: 70 | Crabgrass, Large plant response rating [2, 11]: 80 | Crabgrass, Large plant response rating [2, 12]: 90 | Plant response rating, Crabgrass, Large [2, 13]: 90 | Plant response rating, Crabgrass, Large [2, 14]: 100 | Foxtail, Giant plant response rating [3, 11]: 60 | Foxtail, Giant plant response rating [3, 12]: 90 | Plant response rating, Foxtail, Giant [3, 13]: 90 | Plant response rating, Foxtail, Giant [3, 14]: 100 | Morningglory plant response rating [4, 11]: 90 | Morningglory plant response rating [4, 12]: 100 | Plant response rating, Morningglory [4, 13]: 20 | Plant response rating, Morningglory [4, 14]: 50 | Pigweed plant response rating [5, 11]: 100 | Pigweed plant response rating [5, 12]: 100 | Plant response rating, Pigweed [5, 13]: 90 | Plant response rating, Pigweed [5, 14]: 100 | Velvetleaf plant response rating [6, 11]: 80 | Velvetleaf plant response rating [6, 12]: 100 | Plant response rating, Velvetleaf [6, 13]: 30 | Plant response rating, Velvetleaf [6, 14]: 60 | Wheat plant response rating [7, 11]: 20 | Wheat plant response rating [7, 12]: 30 | Plant response rating, Wheat [7, 13]: 0 | Plant response rating, Wheat [7, 14]: 20 | Corn plant response rating (corn (Zea mays); [11]): 20 | Corn plant response rating (corn (Zea mays); [12]): 30 | Plant response rating, Corn (corn (Zea mays); [13]): 10 | Plant response rating, Corn (corn (Zea mays); [14]): 20 | Plant response rating, Rice (rice (Oryza sativa); [15]): 25 | Plant response rating, Rice (rice (Oryza sativa); [16]): 30 | Plant response rating, Rice (rice (Oryza sativa); Flood, 31 g ai/ha): 0 | Plant response rating, Rice (rice (Oryza sativa); Flood, 62 g ai/ha): 0 | Plant response rating, Sedge, Umbrella [8, 15]: 85 | Plant response rating, Sedge, Umbrella [8, 16]: 85 | Plant response rating, Sedge, Umbrella ([8]; Flood, 31 g ai/ha): 70 | Plant response rating, Sedge, Umbrella ([8]; Flood, 62 g ai/ha): 75 | Plant response rating, Ducksalad [9, 15]: 60 | Plant response rating, Ducksalad [9, 16]: 65 | Plant response rating, Ducksalad ([9]; Flood, 31 g ai/ha): 0 | Plant response rating, Ducksalad ([9]; Flood, 62 g ai/ha): 0 | Plant response rating, Barnyardgrass [10, 15]: 40 | Plant response rating, Barnyardgrass [10, 16]: 40 | Plant response rating, Barnyardgrass ([10]; Flood, 31 g ai/ha): 10 | Plant response rating, Barnyardgrass ([10]; Flood, 62 g ai/ha): 20

COc1nn(-c2ccc(C(F)(F)F)cc2)nc1Cc1cccc(C(F)(F)F)c1 [Compound 29]
Barnyardgrass plant response rating [1, 11]: 20 | Barnyardgrass plant response rating [1, 12]: 40 | Plant response rating, Barnyardgrass [1, 17]: 10 | Plant response rating, Barnyardgrass [1, 18]: 50 | Crabgrass, Large plant response rating [2, 11]: 90 | Crabgrass, Large plant response rating [2, 12]: 90 | Plant response rating, Crabgrass, Large [2, 17]: 90 | Plant response rating, Crabgrass, Large [2, 18]: 100 | Foxtail, Giant plant response rating [3, 11]: 60 | Foxtail, Giant plant response rating [3, 12]: 90 | Plant response rating, Foxtail, Giant [3, 17]: 80 | Plant response rating, Foxtail, Giant [3, 18]: 100 | Morningglory plant response rating [4, 11]: 80 | Morningglory plant response rating [4, 12]: 100 | Plant response rating, Morningglory [4, 17]: 0 | Plant response rating, Morningglory [4, 18]: 10 | Pigweed plant response rating [5, 11]: 100 | Pigweed plant response rating [5, 12]: 100 | Plant response rating, Pigweed [5, 17]: 50 | Plant response rating, Pigweed [5, 18]: 90 | Velvetleaf plant response rating [6, 11]: 60 | Velvetleaf plant response rating [6, 12]: 80 | Plant response rating, Velvetleaf [6, 17]: 0 | Plant response rating, Velvetleaf [6, 18]: 50 | Wheat plant response rating [7, 11]: 0 | Wheat plant response rating [7, 12]: 30 | Plant response rating, Wheat [7, 17]: 0 | Plant response rating, Wheat [7, 18]: 0 | Corn plant response rating (corn (Zea mays); [11]): 20 | Corn plant response rating (corn (Zea mays); [12]): 20 | Plant response rating, Corn (corn (Zea mays); [17]): 0 | Plant response rating, Corn (corn (Zea mays); [18]): 0 | Plant response rating, Rice (rice (Oryza sativa); [19]): 0 | Plant response rating, Rice (rice (Oryza sativa); [15]): 0 | Plant response rating, Rice (rice (Oryza sativa); [16]): 0 | Plant response rating, Rice (rice (Oryza sativa); Flood, 31 g ai/ha): 0 | Plant response rating, Sedge, Umbrella [8, 19]: 60 | Plant response rating, Sedge, Umbrella [8, 15]: 70 | Plant response rating, Sedge, Umbrella [8, 16]: 75 | Plant response rating, Sedge, Umbrella ([8]; Flood, 31 g ai/ha): 50 | Plant response rating, Ducksalad [9, 19]: 0 | Plant response rating, Ducksalad [9, 15]: 0 | Plant response rating, Ducksalad [9, 16]: 0 | Plant response rating, Ducksalad ([9]; Flood, 31 g ai/ha): 0 | Plant response rating, Barnyardgrass [10, 19]: 0 | Plant response rating, Barnyardgrass [10, 15]: 0 | Plant response rating, Barnyardgrass [10, 16]: 20 | Plant response rating, Barnyardgrass ([10]; Flood, 31 g ai/ha): 0

Source: patent US9302999B2, “Substituted triazoles as herbicides” (E. I. DU PONT DE NEMOURS AND COMPANY, priority 2012, dated 2016)
